Like-named read-outs stand apart in the source and are kept apart here.
Tests used:
Type in all cases: in vivo
rice (Oryza sativa) = experiment: Test B flooded paddy test plant response; conditions: Oryza sativa, read-out: Plant response rating, Rice
How it was run: (§1)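 Paddy-water application to 2-leaf plants in pots held under 3 cm of flooding; response is a 0–100 visual control rating against controls after 13 to 15 days, and a dash marks a missing result.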

[1] = system: ducksalad (Heteranthera limosa); experiment: Test B flooded paddy test plant response; conditions: Heteranthera limosa, read-out: Plant response rating, Ducksalad
How it was run: as §1

[2] = system: umbrella sedge (Cyperus difformis); experiment: Test B flooded paddy test plant response; conditions: Cyperus difformis, read-out: Plant response rating, Sedge, Umbrella
How it was run: as §1

[3] = system: barnyardgrass (Echinochloa crus-galli); experiment: Test B flooded paddy test plant response; conditions: Echinochloa crus-galli, read-out: Plant response rating, Barnyardgrass
How it was run: as §1

corn (Zea mays) = experiment: Test B pre-/postemergence plant response; conditions: Zea mays; for Corn plant response rating (crop injury, 0 = no effect, 100 = complete kill) at 31 g/ha: 31 g ai/ha, 100 complete control; for Corn plant response rating (crop injury, 0 = no effect, 100 = complete kill) at 62 g/ha: 62 g ai/ha; for Corn plant response rating (crop injury, 0 = no effect, 100 = complete kill) at 62 g/ha / Corn plant response rating (crop injury, 0 = no effect, 100 = complete kill) at 125 g/ha / Corn plant response rating (crop injury, 0 = no effect, 100 = complete kill) at 250 g/ha: scale 0 to 100; for Corn plant response rating (crop injury, 0 = no effect, 100 = complete kill) at 125 g/ha: 125 g ai/ha; for Corn plant response rating (crop injury, 0 = no effect, 100 = complete kill) at 250 g/ha: 250 g ai/ha
From the text: (§2) Seeds of plant species selected from blackgrass (Alopecurus myosuroides), downy bromegrass (Bromus tectorum), green foxtail (Setaria viridis), Italian ryegrass (Lolium multiflorum), wheat (Triticum aestivum), wild oat (Avena fatua), catchweed bedstraw (Galium aparine), bermudagrass (Cynodon dactylon), surinam grass (Brachiaria decumbens), cocklebur (Xanthium strumarium), corn (Zea mays), large crabgrass (Digitaria sanguinalis), woolly cupgrass (Eriochloa villosa), giant foxtail (Setaria faberii), goosegrass (Eleusine indica), johnsongrass (Sorghum halepense), kochia (Kochia scoparia), lambsquarters (Chenopodium album), morningglory (Ipomoea coccinea), eastern black (E.B.) nightshade (Solanum ptycanthum), yellow nutsedge (Cyperus esculentus), pigweed (Amaranthus retroflexus), common ragweed (Ambrosia elation), Russian thistle (Salsola iberica), soybean (Glycine max), common (oilseed) sunflower (Helianthus annuus), and velvetleaf (Abutilon theophrasti) were planted and treated preemergence with test chemicals formulated in a non-phytotoxic solvent mixture which included a surfactant.
(§3) At the same time, plants selected from these crop and weed species and also winter barley (Hordeum vulgare), canarygrass (Phalaris minor), chickweed (Stellaria media) and windgrass (Apera spica-venti) were treated with postemergence applications of some of the test chemicals formulated in the same manner. Plants ranged in height from 2 to 18 cm (1- to 4-leaf stage) for postemergence treatments.
(§4) Plant species in the flooded paddy test consisted of rice (Oryza sativa), umbrella sedge (Cyperus difformis), ducksalad (Heteranthera limosa) and barnyardgrass (Echinochloa crus-galli) grown to the 2-leaf stage for testing. At time of treatment, test pots were flooded to 3 cm above the soil surface, treated by application of test compounds directly to the paddy water, and then maintained at that water depth for the duration of the test. Treated plants and controls were maintained in a greenhouse for 13 to 15 days, after which time all species were compared to controls and visually evaluated. Plant response ratings, summarized in Table B, are based on a scale of 0 to 100 where 0 is no effect and 100 is complete control. A dash (-) response means no test result.

[4] = system: common (oilseed) sunflower (Helianthus annuus); experiment: Test B pre-/postemergence plant response; conditions: Helianthus annuus, pre-emergence, Preemergence, read-out: Plant response rating, Sunflower
From the text: as §2, §3, §4

[5] = system: downy bromegrass (Bromus tectorum); experiment: Test B pre-/postemergence plant response; conditions: Bromus tectorum, read-out: Plant response rating, Bromegrass, Downy; for pest or weed control at 31 g/ha: 31 g ai/ha, 100 complete control; for pest or weed control at 62 g/ha: 62 g ai/ha; for pest or weed control at 125 g/ha: 125 g ai/ha; for pest or weed control at 250 g/ha: 250 g ai/ha
From the text: as §2, §3, §4

wild oat (Avena fatua) = experiment: Test B pre-/postemergence plant response; conditions: Avena fatua, read-out: Plant response rating, Oat, Wild; for pest or weed control at 31 g/ha: 31 g ai/ha, 100 complete control; for pest or weed control at 62 g/ha: 62 g ai/ha; for pest or weed control at 62 g/ha / pest or weed control at 125 g/ha / pest or weed control at 250 g/ha: scale 0 to 100; for pest or weed control at 125 g/ha: 125 g ai/ha; for pest or weed control at 250 g/ha: 250 g ai/ha
From the text: as §2, §3, §4

[6] = system: wheat (Triticum aestivum); experiment: Test B pre-/postemergence plant response; conditions: Triticum aestivum, post-emergence; Postemergence, 31 g ai/ha; scale 0 to 100, 0 no effect, 100 complete control; read-out: Plant response rating, Wheat
From the text: as §2, §3, §4

[7] = Flood (flooded paddy test), 62 g ai/ha, scale 0 to 100, 0 no effect, 100 complete control
[8] = Flood (flooded paddy test), 125 g ai/ha, scale 0 to 100, 0 no effect, 100 complete control
[9] = Flood (flooded paddy test), 250 g ai/ha, scale 0 to 100, 0 no effect, 100 complete control
[10] = Flood, 31 g ai/ha, scale 0 to 100
[11] = post-emergence, Postemergence, scale 0 to 100, 0 no effect
[12] = pre-emergence, Preemergence, 0 to 100 scale, 0 no effect
[13] = post-emergence, Postemergence, scale 0 to 100
[14] = pre-emergence, Preemergence, scale 0 to 100

For `Cc1cc(-c2ccc(C(F)(F)F)cc2)nn1-c1c(O)cnn(C)c1=O` [Compound 1, 5-hydroxy-2-methyl-4-[5-methyl-3-[4-(trifluoromethyl)phenyl]-1H-pyrazol-1-yl]-3(2H)-pyridazinone], the plant injury at 62 g/ha (rice (Oryza sativa); [7]) was 0%, the plant injury at 125 g/ha (rice (Oryza sativa); [8]) was 0% and the plant injury at 250 g/ha (rice (Oryza sativa); [9]) was 50%. The plant injury at 31 g/ha (rice (Oryza sativa); [10]) was 0%, the pest or weed control at 62 g/ha [1, 7] was 0% and the pest or weed control at 125 g/ha [1, 8] was 0%. The pest or weed control at 250 g/ha [1, 9] was 30%, the pest or weed control at 31 g/ha [1, 10] was 0% and the pest or weed control at 62 g/ha [2, 7] was 40%. It also gave a pest or weed control at 125 g/ha [2, 8] of 40%, a pest or weed control at 250 g/ha [2, 9] of 60% and a pest or weed control at 31 g/ha [2, 10] of 0%. It also gave a pest or weed control at 62 g/ha [3, 7] of 0%, a pest or weed control at 125 g/ha [3, 8] of 20% and a pest or weed control at 250 g/ha [3, 9] of 60%. It also gave a pest or weed control at 31 g/ha [3, 10] of 0%, a Corn plant response rating (crop injury, 0 = no effect, 100 = complete kill) at 31 g/ha (corn (Zea mays); [11]) of 10% and a Corn plant response rating (crop injury, 0 = no effect, 100 = complete kill) at 62 g/ha (corn (Zea mays); post-emergence, Postemergence) of 100%. It also gave a Corn plant response rating (crop injury, 0 = no effect, 100 = complete kill) at 125 g/ha (corn (Zea mays); post-emergence, Postemergence) of 100%, a Corn plant response rating (crop injury, 0 = no effect, 100 = complete kill) at 250 g/ha (corn (Zea mays); post-emergence, Postemergence) of 100% and a Corn plant response rating (crop injury, 0 = no effect, 100 = complete kill) at 31 g/ha (corn (Zea mays); [12]) of 90%. It also gave a Corn plant response rating (crop injury, 0 = no effect, 100 = complete kill) at 62 g/ha (corn (Zea mays); pre-emergence, Preemergence) of 95%, a Corn plant response rating (crop injury, 0 = no effect, 100 = complete kill) at 125 g/ha (corn (Zea mays); pre-emergence, Preemergence) of 100% and a Corn plant response rating (crop injury, 0 = no effect, 100 = complete kill) at 250 g/ha (corn (Zea mays); pre-emergence, Preemergence) of 100%. It also gave a pest or weed control at 31 g/ha ([4]; 31 g ai/ha, 0 to 100 scale, 0 no effect, 100 complete control) of 0%, a pest or weed control at 62 g/ha ([4]; 62 g ai/ha, scale 0 to 100) of 0% and a pest or weed control at 125 g/ha ([4]; 125 g ai/ha, scale 0 to 100) of 0%. It also gave a pest or weed control at 250 g/ha ([4]; 250 g ai/ha, scale 0 to 100) of 60%, a pest or weed control at 31 g/ha [5, 11] of 30% and a pest or weed control at 62 g/ha [5, 13] of 60%. For the same compound, the pest or weed control at 125 g/ha [5, 13] was 95%, the pest or weed control at 250 g/ha [5, 13] was 100% and the pest or weed control at 31 g/ha [5, 12] was 40%. It also gave a pest or weed control at 62 g/ha [5, 14] of 80%, a pest or weed control at 125 g/ha [5, 14] of 80% and a pest or weed control at 250 g/ha ([5]; pre-emergence, Preemergence, scale 0 to 100 (0 no effect, 100 complete control)) of 95%. The pest or weed control at 31 g/ha (wild oat (Avena fatua); [11]) was 90%, the pest or weed control at 62 g/ha (wild oat (Avena fatua); post-emergence, Postemergence) was 100% and the pest or weed control at 125 g/ha (wild oat (Avena fatua); post-emergence, Postemergence) was 100%. For the same compound, the pest or weed control at 250 g/ha (wild oat (Avena fatua); post-emergence, Postemergence) was 100%, the pest or weed control at 31 g/ha (wild oat (Avena fatua); [12]) was 60% and the pest or weed control at 62 g/ha (wild oat (Avena fatua); pre-emergence, Preemergence) was 85%. It also gave a pest or weed control at 125 g/ha (wild oat (Avena fatua); pre-emergence, Preemergence) of 90%, a pest or weed control at 250 g/ha (wild oat (Avena fatua); pre-emergence, Preemergence) of 98% and a plant injury at 31 g/ha [6] of 45%.

From patent publication US20100267561A1, “HERBICIDAL PYRIDAZINONE DERIVATIVES” (priority 2007, published 2010)
